In assay [1] the target is T1, Angiotensin-converting enzyme (Homo sapiens, UniProt P12821). Put plainly: Inhibition of human glycosylated C-terminal catalytic ACE domain using Cbz-Phe-His-Leu substrate by fluorogenic end point activity assay.
In a further assay the target is Neprilysin (Homo sapiens, UniProt P08473). Nature of the assay: Inhibition of human NEP ectodomain using MCA-RPPGFSAFK-(Dnp)-OH peptide as substrate by continuous activity assay.
In assay [2] the target is T1, Angiotensin-converting enzyme. Put plainly: Inhibition of human glycosylated N-terminal catalytic ACE domain using Cbz-Phe-His-Leu substrate by fluorogenic end point activity assay.
The species entered for a further assay is Homo sapiens. Nature of the assay: Selectivity factor, ratio of IC50 for human glycosylated nACE to IC50 for human glycosylated cACE.

The record followed here is ChEMBL document CHEMBL6115051, “Design of Novel Mercapto-3-phenylpropanoyl Dipeptides as Dual Angiotensin-Converting Enzyme C-Domain-Selective/Neprilysin Inhibitors” (J Med Chem, 2025).

Broadly, the IC50 is the concentration at which inhibition is half-maximal.

A value given as a limit tells only on which side of the number the result lay.

T1 sequence (P12821 whole entry, the tested form may be a part): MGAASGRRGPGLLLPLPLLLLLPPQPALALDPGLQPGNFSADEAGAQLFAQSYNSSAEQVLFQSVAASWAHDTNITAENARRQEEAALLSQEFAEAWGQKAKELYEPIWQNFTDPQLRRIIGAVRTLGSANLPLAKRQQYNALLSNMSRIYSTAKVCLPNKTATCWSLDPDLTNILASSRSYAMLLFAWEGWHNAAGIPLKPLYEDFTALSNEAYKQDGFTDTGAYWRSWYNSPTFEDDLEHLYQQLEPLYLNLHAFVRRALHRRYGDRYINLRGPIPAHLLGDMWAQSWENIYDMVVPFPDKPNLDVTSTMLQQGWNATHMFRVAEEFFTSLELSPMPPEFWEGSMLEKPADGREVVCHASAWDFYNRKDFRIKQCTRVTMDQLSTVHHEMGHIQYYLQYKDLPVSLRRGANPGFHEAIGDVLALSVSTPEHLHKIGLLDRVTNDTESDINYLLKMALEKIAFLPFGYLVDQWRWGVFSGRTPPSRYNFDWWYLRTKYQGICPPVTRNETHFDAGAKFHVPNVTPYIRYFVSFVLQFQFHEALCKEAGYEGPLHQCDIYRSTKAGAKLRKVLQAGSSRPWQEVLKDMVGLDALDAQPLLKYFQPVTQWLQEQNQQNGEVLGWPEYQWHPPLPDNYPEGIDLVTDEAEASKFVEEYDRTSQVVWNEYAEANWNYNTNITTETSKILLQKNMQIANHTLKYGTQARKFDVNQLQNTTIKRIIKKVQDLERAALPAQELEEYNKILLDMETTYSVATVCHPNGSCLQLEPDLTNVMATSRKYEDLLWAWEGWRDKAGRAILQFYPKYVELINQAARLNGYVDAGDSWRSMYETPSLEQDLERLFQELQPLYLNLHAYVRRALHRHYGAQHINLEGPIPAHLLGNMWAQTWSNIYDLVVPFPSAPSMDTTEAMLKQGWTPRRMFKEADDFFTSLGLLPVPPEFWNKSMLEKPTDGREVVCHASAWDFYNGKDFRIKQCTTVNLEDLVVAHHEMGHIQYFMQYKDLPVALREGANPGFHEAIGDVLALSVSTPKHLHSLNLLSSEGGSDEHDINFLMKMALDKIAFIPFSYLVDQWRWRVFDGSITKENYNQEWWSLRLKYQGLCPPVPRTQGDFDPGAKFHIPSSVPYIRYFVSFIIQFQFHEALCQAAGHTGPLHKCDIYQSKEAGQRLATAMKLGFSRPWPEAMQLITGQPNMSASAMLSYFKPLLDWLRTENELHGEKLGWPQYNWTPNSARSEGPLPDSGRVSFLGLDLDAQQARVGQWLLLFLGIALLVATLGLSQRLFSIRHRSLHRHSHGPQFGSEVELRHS
Sequence of Neprilysin (P08473 whole entry, the tested form may be a part): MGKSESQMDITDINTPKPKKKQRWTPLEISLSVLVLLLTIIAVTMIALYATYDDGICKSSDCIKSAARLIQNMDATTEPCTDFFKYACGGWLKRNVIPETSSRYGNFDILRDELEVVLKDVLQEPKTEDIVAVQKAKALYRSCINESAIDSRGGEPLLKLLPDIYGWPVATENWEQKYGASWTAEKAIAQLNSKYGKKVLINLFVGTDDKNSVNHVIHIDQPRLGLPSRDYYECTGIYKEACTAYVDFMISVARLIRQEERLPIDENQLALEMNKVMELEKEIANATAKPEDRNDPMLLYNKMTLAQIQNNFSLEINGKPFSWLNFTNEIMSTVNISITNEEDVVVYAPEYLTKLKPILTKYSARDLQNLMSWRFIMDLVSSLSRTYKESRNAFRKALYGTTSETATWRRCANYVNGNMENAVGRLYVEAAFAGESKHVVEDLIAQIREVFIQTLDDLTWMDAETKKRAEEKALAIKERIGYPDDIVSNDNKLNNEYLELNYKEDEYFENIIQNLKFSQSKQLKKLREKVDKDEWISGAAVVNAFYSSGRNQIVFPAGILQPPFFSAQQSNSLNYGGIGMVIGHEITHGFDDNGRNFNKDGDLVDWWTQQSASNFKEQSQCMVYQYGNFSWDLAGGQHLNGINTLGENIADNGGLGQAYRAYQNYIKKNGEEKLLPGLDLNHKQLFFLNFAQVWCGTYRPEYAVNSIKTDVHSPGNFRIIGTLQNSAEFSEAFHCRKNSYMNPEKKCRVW

Consider `O=C(NCC(=O)N1[C@@H](c2cccc(O)c2)CC[C@H]1C(=O)O)[C@@H](S)Cc1ccc(O)cc1`, for which the IC50 in assay [1] was determined as 0.009 µM.

As for `NCCCC[C@H](N[C@@H](CCc1ccccc1)C(=O)O)C(=O)N[C@@H](Cc1c[nH]c2ccccc12)C(=O)O`, the values for the IC50 (on Neprilysin; in assay [2]; in assay [1]) were greater than 250 µM, 3.1 µM and 0.08 µM, respectively. In the assay filed under Homo sapiens, the Ratio IC50 was determined as 39.

Regarding `NCCCC[C@H](NC(=O)[C@@H](S)Cc1ccccc1)C(=O)N[C@@H](Cc1c[nH]c2ccccc12)C(=O)O`, in assay [1], the 50% inhibitory concentration (IC50) worked out at 0.007 µM.

Regarding `Cc1ccc([C@H]2CC[C@@H](C(=O)O)N2C(=O)CN[C@@H](CCc2ccccc2)C(=O)O)cc1`, the IC50 at Neprilysin was greater than 100 µM; in assay [2], 6 µM; in assay [1] it was 4.1 µM. The Ratio IC50 in the assay listed under Homo sapiens worked out at 1.5.
